18 compounds from patent US10975068B2, “6-aminopyridin-3-yl thiazoles as modulators of RORγT” (Janssen Pharmaceutica NV, priority 2016, dated 2021) can be followed below.

What is called Kd is the constant that tells how readily two partners part at equilibrium. The IC50 is the concentration needed to halve the response being measured. For orientation: inhibition means the relative decrease from the control value, in per cent.

The target in assay [1] is human RORγt ligand binding domain (RORγt LBD) (Homo sapiens (Human), UniProt P51449). The assay is described as follows: RORγt ThermoFluor® assay (thermal shift binding). As to conditions: read-out: ThermoFluor® Assay, Kd. In short, it runs like this:
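His-tagged human RORγt LBD (0.065 mg/mL) with 60 μM 1,8-ANS in 100 mM Hepes pH 7.0, 10 mM NaCl, 2.5 mM GSH, 0.002% Tween-20 was heated at 1 °C/min.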

The target of the next assay is full-length human RORγt (Homo sapiens (Human), UniProt P51449). Nature of the assay: RORγt (full-length human) reporter assay, Conditions B or C. In kind it is cell-based. As to conditions: for RORγt (FL) Reporter Assay B or C, % inhibition (value marked *): marked *: footnote not given; for inhibition at 3 µM: at 3 μM compound concentration. In short, it runs like this: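 HEK293T cells transiently co-transfected with GAL4-DBD–full-length human RORγt (nt 142-1635, NM_001001523.1) plus GAL4-firefly and CMV-Renilla luciferase reporters; compounds added 4-6 h post-transfection for 16-20 h in 1.3% FBS, 0.1% DMSO. Firefly signal normalized to DMSO and saturating reference compound, then to Renilla; IC50 from concentration plots.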
full-length human RORγt, sequence (P51449 other isoform, or with tags, fused parts or gaps): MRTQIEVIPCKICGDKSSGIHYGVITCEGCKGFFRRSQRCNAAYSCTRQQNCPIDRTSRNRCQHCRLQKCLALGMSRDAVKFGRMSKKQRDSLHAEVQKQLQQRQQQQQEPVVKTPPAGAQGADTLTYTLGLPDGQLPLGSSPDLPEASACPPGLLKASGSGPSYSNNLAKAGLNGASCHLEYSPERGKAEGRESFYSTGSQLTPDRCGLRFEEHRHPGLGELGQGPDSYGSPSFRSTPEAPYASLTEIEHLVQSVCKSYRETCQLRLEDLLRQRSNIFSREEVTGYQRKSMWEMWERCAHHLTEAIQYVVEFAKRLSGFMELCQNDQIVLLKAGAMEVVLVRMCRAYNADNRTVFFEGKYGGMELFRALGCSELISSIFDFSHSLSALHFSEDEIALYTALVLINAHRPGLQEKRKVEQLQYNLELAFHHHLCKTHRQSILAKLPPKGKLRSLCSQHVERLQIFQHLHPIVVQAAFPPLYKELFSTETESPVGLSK
In general terms: In a reporter assay the amount or activity of a reporter protein is the signal.

The mark [2] stands for this setting: Conditions B or C, read-out: RORγt (FL) Reporter Assay B or C, IC50.
[3] abbreviates: read-out: RORγt (FL) Reporter Assay B or C, % inhibition.
[4] abbreviates: read-out: RORγt (FL) Reporter Assay B or C, IC50.

The structures appear in SMILES notation. Read-outs that look alike come from different tables or passages of the source.

human RORγt ligand binding domain (RORγt LBD), sequence (P51449 other isoform, or with tags, fused parts or gaps): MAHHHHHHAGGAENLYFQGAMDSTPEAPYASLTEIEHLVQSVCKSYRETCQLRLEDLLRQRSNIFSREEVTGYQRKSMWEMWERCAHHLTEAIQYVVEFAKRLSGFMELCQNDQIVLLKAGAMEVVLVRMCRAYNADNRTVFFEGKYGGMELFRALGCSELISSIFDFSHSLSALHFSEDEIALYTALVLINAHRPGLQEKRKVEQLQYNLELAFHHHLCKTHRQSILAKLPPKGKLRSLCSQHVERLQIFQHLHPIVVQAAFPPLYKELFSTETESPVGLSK

Consider `C[C@H](Nc1cc(C(F)F)c(-c2sc(C(=O)N[C@@H]3C[C@H]3O)nc2C(=O)N2CCC[C@@H]2C)cn1)C(F)(F)F` (single isomer, unassigned) [Example 157, 5-(4-(Difluoromethyl)-6-(((S)-1,1,1-trifluoropropan-2-yl)amino)pyridin-3-yl)-N-((1R*,2R*)-2-hydroxycyclopropyl)-4-((S)-2-methylpyrrolidine-1-carbonyl)thiazole-2-carboxamide], for which, in assay [1], the Kd was found to be 32 nM. Besides, the “RORγt (FL) Reporter Assay B or C, % inhibition (value marked *)” value (shortened to “RORγt … % inhibition (value marked *)”) at full-length human RORγt (Conditions B or C) is 89* %. Further, at full-length human RORγt (setting [2]), the IC50 was found to be 190 nM.

On to `CC(C)(O)CNC(=O)c1nc(C(=O)N2C3CCC2CC3)c(-c2cnc(NC(C3CC3)C3CC3)cc2C(F)(F)F)s1` [Example 137, 4-((1s,4s)-7-Azabicyclo[2.2.1]heptane-7-carbonyl)-5-(6-((dicyclopropylmethyl)amino)-4-(trifluoromethyl)pyridin-3-yl)-N-(2-hydroxy-2-methypropyl)thiazole-2-carboxamide], for which the Kd in assay [1] is 1.1 nM. Moreover, on full-length human RORγt (Conditions B or C), the “RORγt … % inhibition (value marked *)” value is listed as 97* %. At full-length human RORγt (setting [2]), the IC50 worked out at 12 nM.

Take `CC[C@H](Nc1cc(C(F)F)c(-c2sc(C(=O)N[C@@H]3CC[C@@H](O)C3)nc2C(=O)N2C3CCC2CC3)cn1)C(F)(F)F` [Example 152]: the Kd in assay [1] turned out to be 0.88 nM. The IC50 at full-length human RORγt (setting [2]) is 11 nM. Further, the inhibition at 6 µM on full-length human RORγt (read-out: RORγt (FL) Reporter Assay B or C, % inhibition @ 6 μM, Conditions B or C, @ 6 μM) came to 102%.

For the compound `C[C@H](CO)NC(=O)c1nc(C(=O)N2CCC[C@@H]2C)c(-c2cnc(NC(C)(C)C)cc2C(F)F)s1` [Example 148, 5-(6-(tert-Butylamino)-4-(difluoromethyl)-3-pyridyl)-N-((1R)-2-hydroxy-1-methyl-ethyl)-4-((2S)-2-methylpyrrolidine-1-carbonyl)thiazole-2-carboxamide], the Kd in assay [1] was 6.4 nM. On full-length human RORγt (Conditions B or C), the “RORγt … % inhibition (value marked *)” value is listed as 95* %. At full-length human RORγt (setting [2]), the concentration for half-maximal inhibition (IC50) was 25 nM.

For the compound `CCC(C)(C)Nc1cc(C(F)F)c(-c2sc(C(=O)NCC(C)(C)O)nc2C(=O)N2CCC[C@@H]2C)cn1` [Example 96, (S)-5-(4-(Difluoromethyl)-6-(tert-pentylamino)pyridin-3-yl)-N-(2-hydroxy-2-methylpropyl)-4-(2-methylpyrrolidine-1-carbonyl)thiazole-2-carboxamide], the Kd in assay [1] turned out to be 1.2 nM. Moreover, the “RORγt … % inhibition (value marked *)” value on full-length human RORγt (Conditions B or C) is 119* %. For the same compound, at full-length human RORγt (setting [2]), the IC50 came to 37 nM.

For the compound `CC[C@@H](Nc1cc(C(F)F)c(-c2sc(C(=O)NCC(C)(C)O)nc2C(=O)N2C3CCC2CC3)cn1)C1CC1` (stereo in doubt) [Example 164], the Kd in assay [1] came out at 4.6 nM. In addition, the “RORγt … % inhibition (value marked *)” value on full-length human RORγt (Conditions B or C) is given as 105* %. Moreover, the IC50 on full-length human RORγt (setting [2]) is 23 nM.

For the compound `C[C@@H](Nc1cc(C(F)F)c(-c2sc(C(=O)NCC(C)(C)O)nc2C(=O)N2CCC[C@@H]2C)cn1)C1CC1` [Example 50, 5-(6-(((R)-1-Cyclopropylethyl)amino)-4-(difluoromethyl)pyridin-3-yl)-N-(2-hydroxy-2-methylpropyl)-4-((S)-2-methylpyrrolidine-1-carbonyl)thiazole-2-carboxamide], in assay [1], the Kd was 71 nM. In addition, the “RORγt … % inhibition (value marked *)” value at full-length human RORγt (Conditions B or C) was 100* %. Besides, the IC50 at full-length human RORγt (setting [2]) was 58 nM.

With `C[C@H](Nc1cc(C(F)F)c(-c2sc(C(=O)N[C@H]3CC[C@@H]3O)nc2C(=O)N2CCC[C@@H]2C)cn1)C(F)(F)F` (relative stereo) [Example 388, 5-(4-(Difluoromethyl)-6-(((S)-1,1,1-trifluoropropan-2-yl)amino)pyridin-3-yl)-N-((1S*,2S*)-2-hydroxycyclobutyl)-4-((S)-2-methylpyrrolidine-1-carbonyl)thiazole-2-carboxamide], the equilibrium dissociation constant (Kd) in assay [1] turned out to be 8.6 nM. Further, the inhibition at 3 µM on full-length human RORγt (setting [3]) was 103%. In addition, the IC50 at full-length human RORγt (setting [4]) was found to be 85 nM.

For the compound `C[C@H]1CCCN1C(=O)c1nc(C(=O)NCC(C)(C)O)sc1-c1cnc(NCC(C)(C)C(F)(F)F)cc1C(F)(F)F` [Example 120, (S)—N-(2-Hydroxy-2-methylpropyl)-4-(2-methylpyrrolidine-1-carbonyl)-5-(6-((3,3,3-trifluoro-2,2-dimethylpropyl)amino)-4-(trifluoromethyl)pyridin-3-yl)thiazole-2-carboxamide], in assay [1], the Kd was determined as 1.7 nM. Also, the “RORγt … % inhibition (value marked *)” value at full-length human RORγt (Conditions B or C) is given as 103* %. The IC50 on full-length human RORγt (setting [2]) turned out to be 26 nM.

For `C[C@H]1CCCN1C(=O)c1nc(C(=O)NCC2(O)CC2)sc1-c1cnc(NC2CCCC2)cc1C(F)F` [Example 2, (S)-5-(6-(Cyclopentylamino)-4-(difluoromethyl)pyridin-3-yl)-N-((1-hydroxycyclopropyl)methyl)-4-(2-methylpyrrolidine-1-carbonyl)thiazole-2-carboxamide], the Kd in assay [1] came to 40 nM. Further, the “RORγt … % inhibition (value marked *)” value at full-length human RORγt (Conditions B or C) was 95* %. The half-inhibitory concentration (IC50) on full-length human RORγt (setting [2]) was 77 nM.

In the case of `C[C@H]1CCCN1C(=O)c1nc(C(=O)N2CC(C)(O)C2)sc1-c1cnc(NC(C)(C)C)cc1C(F)F` [Example 149, [5-[6-(tert-Butylamino)-4-(difluoromethyl)-3-pyridyl]-2-(3-hydroxy-3-methyl-azetidine-1-carbonyl)thiazol-4-yl]-[(2S)-2-methylpyrrolidin-1-yl]methanone], the dissociation constant Kd in assay [1] was found to be 20 nM. Besides, the “RORγt … % inhibition (value marked *)” value on full-length human RORγt (Conditions B or C) is reported as 108* %. Moreover, the IC50 on full-length human RORγt (setting [2]) came to 100 nM.

As for `CC[C@H](CO)NC(=O)c1nc(C(=O)N2CCC[C@@H]2C)c(-c2cnc(N[C@@H](C)C(F)(F)F)cc2C(F)F)s1` [Example 408, 5-[4-(Difluoromethyl)-6-[[(1S)-2,2,2-trifluoro-1-methyl-ethyl]amino]-3-pyridyl]-N-[(1R)-1-(hydroxymethyl)propyl]-4-[(2S)-2-methylpyrrolidine-1-carbonyl]thiazole-2-carboxamide], in assay [1], the Kd turned out to be 3.8 nM. At full-length human RORγt (setting [3]), the inhibition at 3 µM is 83%. The IC50 at full-length human RORγt (setting [4]) amounted to 73 nM.

Turning to `C[C@H](CO)NC(=O)c1nc(C(=O)N2C3CCC2CC3)c(-c2cnc(NC(C)(C)C)cc2C(F)F)s1` [Example 427, 4-((1s,4s)-7-Azabicyclo[2.2.1]heptane-7-carbonyl)-5-[6-(tert-butylamino)-4-(difluoromethyl)-3-pyridyl]-N-[(1R)-2-hydroxy-1-methyl-ethyl]thiazole-2-carboxamide], in assay [1], the Kd turned out to be 3 nM. For the same compound, the IC50 against full-length human RORγt (RORγt (FL) Reporter Assay B or C, IC50) stood at 3 nM. The inhibition at 3 µM on full-length human RORγt (setting [3]) was determined as 113%.

On to `C[C@H]1CCCN1C(=O)c1nc(C(=O)NCC(C)(C)O)sc1-c1cnc(NCC2(C(F)(F)F)CC2)cc1C(F)F` [Example 276, 5-[4-(Difluoromethyl)-6-[[1-(trifluoromethyl)cyclopropyl]methylamino]-3-pyridyl]-N-(2-hydroxy-2-methyl-propyl)-4-[(2S)-2-methylpyrrolidine-1-carbonyl]thiazole-2-carboxamide], for which the Kd in assay [1] is 6.1 nM. The inhibition at 1 µM at full-length human RORγt (at 1 μM compound concentration, read-out: RORγt (FL) Reporter Assay B or C, % inhibition) was determined as 118%. For the same compound, the IC50 at full-length human RORγt (setting [4]) came out at 16 nM.

As for `CC[C@H](Nc1cc(C(F)F)c(-c2sc(C(=O)N[C@@H]3CC[C@@H]3O)nc2C(=O)N2CCC[C@@H]2C)cn1)C(F)(F)F` (relative stereo) [Example 381, 5-(4-(Difluoromethyl)-6-(((S)-1,1,1-trifluorobutan-2-yl)amino)pyridin-3-yl)-N-((1R*,2S*)-2-hydroxycyclobutyl)-4-((S)-2-methylpyrrolidine-1-carbonyl)thiazole-2-carboxamide], the Kd in assay [1] came out at 6.7 nM. At full-length human RORγt (setting [3]), the inhibition at 3 µM turned out to be 107%. The IC50 at full-length human RORγt (setting [4]) came to 12 nM.

For `C[C@H]1CCCN1C(=O)c1nc(C(=O)NCCC(C)(C)O)sc1-c1cnc(NC(C)(C)C)cc1C(F)(F)F` [Example 338, 5-[6-(tert-Butylamino)-4-(trifluoromethyl)-3-pyridyl]-N-(3-hydroxy-3-methyl-butyl)-4-[(2S)-2-methylpyrrolidine-1-carbonyl]thiazole-2-carboxamide], the Kd in assay [1] was 3.9 nM. The inhibition at 3 µM on full-length human RORγt (setting [3]) came out at 107%. Moreover, at full-length human RORγt (setting [4]), the IC50 was determined as 7.7 nM.

`CC[C@H](Nc1cc(C(F)F)c(-c2sc(C(=O)N[C@@H]3CC[C@@H](O)C3)nc2C(=O)N2CCC[C@@H]2C)cn1)C(F)(F)F` [Example 399, 5-[4-(Difluoromethyl)-6-[[(1S)-1-(trifluoromethyl)propyl]amino]-3-pyridyl]-N-[(1R,3R)-3-hydroxycyclopentyl]-4-[(2S)-2-methylpyrrolidine-1-carbonyl]thiazole-2-carboxamide]: the Kd in assay [1] came to 1.2 nM. For the same compound, the inhibition at 3 µM on full-length human RORγt (setting [3]) worked out at 100%. The IC50 on full-length human RORγt (setting [4]) stood at 25 nM.

Take `C[C@H]1CCCCN1C(=O)c1nc(C(=O)NCC(C)(C)O)sc1-c1cnc(NC2(C)CCC2)cc1C(F)(F)F` [Example 81, (S)—N-(2-Hydroxy-2-methylpropyl)-5-(6-((1-methylcyclobutyl)amino)-4-(trifluoromethyl)pyridin-3-yl)-4-(2-methylpiperidine-1-carbonyl)thiazole-2-carboxamide]: the Kd in assay [1] is 0.17 nM. Moreover, the “RORγt … % inhibition (value marked *)” value on full-length human RORγt (Conditions B or C) is given as 105* %. The IC50 on full-length human RORγt (setting [2]) came out at 9.3 nM.
